Measurements taken from article PMC6792352, “Limited Chemical Structural Diversity Found to Modulate Thyroid Hormone Receptor in the Tox21 Chemical Library” (Environmental Health Perspectives, 2019).
Counter-ions that a name gives are not always drawn.

Assay: in vitro
Details: rat, gh3-tre-luc cells, AC50 (uM) modified / 1000
For `CCOc1ccc2ccccc2c1C(=O)N[C@@H]1C(=O)N2[C@@H]1SC(C)(C)[C@@H]2C(=O)O` [Nafcillin sodium monohydrate], the CC50 at 24 h was > 20 µM.
With `Nc1ccc(NC(=O)c2ccc(N)cc2)cc1` [4,4'-Diaminobenzanilide] the CC50 at 24 h was > 90 µM.
With `CC(=O)CC(C)(C)O` [Diacetone alcohol] the CC50 at 24 h was > 90 µM.
For `CC(C)C1=CC2=CC[C@@H]3[C@](C)(CCC[C@@]3(C)C(=O)O)[C@H]2CC1` [Sodium abietate], the CC50 at 24 h was 74.3 µM.
In the case of `Nc1ccc(S(=O)(=O)Nc2ccnn2-c2ccccc2)cc1` [Sulfaphenazole], the CC50 at 24 h is reported as > 20 µM.
In the case of `CCCCC(CC)COC(=O)C(C#N)=C(c1ccccc1)c1ccccc1` (stereo not drawn) [2-Ethylhexyl-2-cyano-3,3-diphenylacrylate], the CC50 at 24 h is reported as > 90 µM.
With `CN1C(=O)C(O)N=C(c2ccccc2)c2cc(Cl)ccc21` (stereo not drawn) [Temazepam] the CC50 at 24 h was > 90 µM.
In the case of `CC(C)CCOC(=O)c1ccc(N(C)C)cc1` [Padimate], the CC50 at 24 h is reported as > 50 µM.
For `O=C(O)CC(=O)C(=O)O` [2-Oxobutanedioic acid], the CC50 at 24 h was > 90 µM.
For `COc1cc(C=O)ccc1OC(=O)C(C)C` [Vanillin isobutyrate], the CC50 at 24 h was > 90 µM.
For `Nc1cc(Cl)c(-c2cc(Cl)c(N)cc2Cl)cc1Cl` [2,2',5,5'-Tetrachlorobenzidine], the CC50 at 24 h was 13.7 µM.
For `O=C(CCN1CC1)OCC(CO)(COC(=O)CCN1CC1)COC(=O)CCN1CC1` [3-{[3-(Aziridin-1-yl)propanoyl]oxy}-2-({[3-(aziridin-1-yl)propanoyl]oxy}methyl)-2-(hydroxymethyl)propyl 3-(aziridin-1-yl)propanoate], the CC50 at 24 h was > 90 µM.
For `O=C=NCCCCCCN=C=O` [1,6-Diisocyanatohexane], the CC50 at 24 h was > 90 µM.
With `CC(COCCO)OCCO` (stereo not drawn) [Pluronic F-127] the CC50 at 24 h was > 80 µM.
With `CCCC(C(=O)OCCN(CC)CC)(c1ccccc1)c1ccccc1` [Proadifen hydrochloride] the CC50 at 24 h was 24.7 µM.
In the case of `CC(=O)c1ccc(Cl)c(Cl)c1Cl` [2',3',4'-Trichloroacetophenone], the CC50 at 24 h is reported as > 90 µM.
With `COc1cccc(OC)c1C(=O)N[C@@H]1C(=O)N2[C@@H]1SC(C)(C)[C@@H]2C(=O)O` [Methicillin sodium hydrate] the CC50 at 24 h was > 50 µM.
In the case of `CC(C)OP(=O)(CP(=O)(OC(C)C)OC(C)C)OC(C)C` [Tetraisopropyl methylenediphosphonate], the CC50 at 24 h is reported as > 90 µM.
With `Nc1nnc(-c2cccc(Cl)c2Cl)c(N)n1` [Lamotrigine] the CC50 at 24 h was > 50 µM.
For `C=C(C)C(=O)OCCC(F)(F)C(F)(F)C(F)(F)C(F)(F)C(F)(F)C(F)(F)F` [6:2 Fluorotelomer methacrylate], the CC50 at 24 h was > 90 µM.
With `c1ccc(SSc2ccccc2)cc1` [Diphenyl disulfide] the CC50 at 24 h was > 90 µM.
In the case of `O=C(O)[C@@H]1[C@H](C(=O)O)[C@H]2CC[C@@H]1O2` [Endothal], the CC50 at 24 h is reported as > 90 µM.
With `CCOC(=O)CC(C)C` [Ethyl isovalerate] the CC50 at 24 h was > 90 µM.
In the case of `CC(C)=CCCC(C)C=O` (stereo not drawn) [2,6-Dimethylhept-5-enal], the CC50 at 24 h is reported as > 90 µM.
With `CC(CCO)CC(C)(C)C` (stereo not drawn) [3,5,5-Trimethyl-1-hexanol] the CC50 at 24 h was > 90 µM.
In the case of `CCCCCCCCCCCCC1CO1` (stereo not drawn) [1,2-Epoxytetradecane], the CC50 at 24 h is reported as > 90 µM.
For `Nc1cnn(-c2ccccc2)c(=O)c1Cl` [Chloridazon], the CC50 at 24 h was > 90 µM.
For `CC1(c2ccccc2)OC(C(=O)O)=CC1=O` (stereo not drawn) [Acifran], the CC50 at 24 h was > 50 µM.
`OC1(c2ccc(Cl)c(C(F)(F)F)c2)CCN(CCCC(c2ccc(F)cc2)c2ccc(F)cc2)CC1` [Penfluridol] gave a CC50 at 24 h of 3.98 µM.
With `N#CC(Cl)(Cl)Cl` [Trichloroacetonitrile] the CC50 at 24 h was > 90 µM.
With `CCCSP(=O)(OCC)SCCC` [Ethoprop] the CC50 at 24 h was > 90 µM.
Work on `COc1cc(NC(C)CCCN)c2ncccc2c1` (stereo not drawn) [Primaquine diphosphate] yielded a CC50 at 24 h of 15 µM.
With `OC[C@H]1O[C@@H]2O[C@H]3[C@H](O)[C@@H](O)[C@@H](O[C@H]4[C@H](O)[C@@H](O)[C@@H](O[C@H]5[C@H](O)[C@@H](O)[C@@H](O[C@H]6[C@H](O)[C@@H](O)[C@@H](O[C@H]7[C@H](O)[C@@H](O)[C@@H](O[C@H]8[C@H](O)[C@@H](O)[C@@H](O[C@H]9[C@H](O)[C@@H](O)[C@@H](O[C@H]1[C@H](O)[C@H]2O)O[C@@H]9CO)O[C@@H]8CO)O[C@@H]7CO)O[C@@H]6CO)O[C@@H]5CO)O[C@@H]4CO)O[C@@H]3CO` [gamma-Cyclodextrin] the CC50 at 24 h was > 30 µM.
With `CCCCCCCCC1CCC(=O)O1` (stereo not drawn) [gamma-Dodecalactone] the CC50 at 24 h was > 90 µM.
With `O=C(OCc1ccccc1)c1cccnc1` [Benzyl nicotinate] the CC50 at 24 h was > 50 µM.
For `C[Si](Cn1cncn1)(c1ccc(F)cc1)c1ccc(F)cc1` [Flusilazole], the CC50 at 24 h was > 90 µM.
For `CN1CCC[C@H]1c1cccnc1` [Nicotine], the CC50 at 24 h was > 90 µM.
With `CN(C)[C@@H]1C(=O)C(C(=O)NCN2CCCC2)=C(O)[C@@]2(O)C(=O)C3=C(O)c4c(O)cccc4[C@@](C)(O)C3C[C@@H]12` (stereo partly drawn) [Rolitetracycline hydrochloride] the CC50 at 24 h was > 50 µM.
With `CCCCCOC(=O)c1ccccc1C(=O)OCCCCC` [Dipentyl phthalate] the CC50 at 24 h was > 90 µM.
In the case of `CCCCNCC(O)c1ccc(O)cc1` (stereo not drawn) [Bamethan], the CC50 at 24 h is reported as > 50 µM.
In the case of `CCCCOC(=O)CCCCCCCC(=O)OCCCC` [Dibutyl nonanedioate], the CC50 at 24 h is reported as > 90 µM.
For `NC(=O)c1ccccc1` [Benzamide], the CC50 at 24 h was > 90 µM.
For `CCN(CC)CC1CCCCN1CC(=O)N1c2ccccc2C(=O)Nc2cccnc21` (stereo not drawn) [AF-DX 116], the CC50 at 24 h was > 50 µM.
With `C[N+](C)(C)CC[N+]1(C)Cc2c(Cl)c(Cl)c(Cl)c(Cl)c2C1` [Chlorisondamine chloride] the CC50 at 24 h was > 50 µM.
With `CC1CCCC(=O)C1=O` (stereo not drawn) [3-Methylcyclohexane-1,2-dione] the CC50 at 24 h was > 90 µM.
In the case of `CC1(C)S[C@@H]2[C@H](NC(=O)C(C(=O)O)c3ccsc3)C(=O)N2[C@H]1C(=O)O` (stereo partly drawn) [Ticarcillin disodium], the CC50 at 24 h is reported as > 50 µM.
With `O=S(=O)(c1cccc2cnccc12)N1CCCNCC1` [Fasudil hydrochloride] the CC50 at 24 h was > 50 µM.
In the case of `Cc1cccc(C)c1NC(=O)C(C)N` (stereo not drawn) [Tocainide hydrochloride], the CC50 at 24 h is reported as > 20 µM.
For `CC1=CC(=O)CC(C)(C)C1` [Isophorone], the CC50 at 24 h was > 90 µM.
In the case of `Nc1c2c(nc3ccccc13)CCCC2` [1,2,3,4-Tetrahydro-9-acridinamine hydrochloride], the CC50 at 24 h is reported as > 90 µM.
With `Nc1cccc(S(=O)(=O)c2cccc(N)c2)c1` [3,3'-Sulphonyldianiline] the CC50 at 24 h was > 90 µM.
For `O=S(=O)(O)c1cc(O)c2c(/N=N/c3ccc(Nc4ccccc4)c4c(S(=O)(=O)O)cccc34)cc(S(=O)(=O)O)cc2c1` [Anazolene sodium], the CC50 at 24 h was 22.8 µM.
For `CC(C)(c1ccccc1)c1cc(-n2nc3ccccc3n2)c(O)c(C(C)(C)c2ccccc2)c1` [2-(2H-Benzotriazol-2-yl)-4,6-bis(1-methyl-1-phenylethyl)phenol], the CC50 at 24 h was > 50 µM.
In the case of `C=CC(=O)OCCCCCCCCCC` [Decyl prop-2-enoate], the CC50 at 24 h is reported as > 90 µM.
For `CCSC(=O)Cl`, the CC50 at 24 h was > 100 µM.
In the case of `CCCCCCCC/C=C/CCCCCCCC(=O)OCCO` [Polyoxyethylene monoleate], the CC50 at 24 h is reported as > 100 µM.
With `O=C(O)c1cccc(C(=O)O)c1C(=O)O` [1,2,3-Benzenetricarboxylic acid] the CC50 at 24 h was > 90 µM.
With `OCCC(F)(F)C(F)(F)C(F)(F)C(F)(F)C(F)(F)C(F)(F)C(F)(F)C(F)(F)F` [8:2 Fluorotelomer alcohol] the CC50 at 24 h was > 90 µM.
With `CC(O)CN(CCCN(C)C)CCCN(C)C` (stereo not drawn) [1-{Bis[3-(dimethylamino)propyl]amino}propan-2-ol] the CC50 at 24 h was > 90 µM.
For `CCC[C@@H]1C[C@@H](C(=O)N[C@@H]([C@H]2O[C@H](SC)[C@H](O)[C@@H](O)[C@H]2O)[C@@H](C)O)N(C)C1` [Lincomycin hydrochloride], the CC50 at 24 h was > 50 µM.
In the case of `Cc1cccc(C)c1NC(=O)CN1CCN(CCCC(c2ccc(F)cc2)c2ccc(F)cc2)CC1` [Lidoflazine], the CC50 at 24 h is reported as 11.6 µM.
With `CCCN1CCCC[C@H]1C(=O)Nc1c(C)cccc1C` [Ropivacaine hydrochloride] the CC50 at 24 h was > 50 µM.
For `O=C(O)C(F)(F)C(F)(F)C(F)(F)C(F)(F)C(F)(F)C(F)(F)C(F)(F)C(F)(F)F` [Perfluorononanoic acid], the CC50 at 24 h was > 90 µM.
For `BrCC(Br)(Br)Br` [1,1,1,2-Tetrabromoethane], the CC50 at 24 h was > 90 µM.
For `CC(C)CN(C[C@@H](O)[C@H](Cc1ccccc1)NC(=O)O[C@H]1CO[C@H]2OCC[C@H]21)S(=O)(=O)c1ccc(N)cc1` [Darunavir], the CC50 at 24 h was > 50 µM.
With `OC[C@H]1O[C@@H](O[C@@H]2[C@@H](CO)OC(O)(CO)[C@H]2O)[C@H](O)[C@@H](O)[C@H]1O` (mixture of isomers) [Lactulose] the CC50 at 24 h was > 50 µM.
In the case of `O=S(=O)(O)c1ccc2cc(O)c(S(=O)(=O)O)cc2c1` [Disodium 3-hydroxynaphthalene-2,7-disulfonate], the CC50 at 24 h is reported as > 90 µM.
With `O=Cc1cccc(Br)c1` [3-Bromobenzaldehyde] the CC50 at 24 h was > 90 µM.

Same assay, conditions: rat, gh3-tre-luc cells, AC50 (uM) modified / 1000, Tox21_110001=Tox21_111893; viability, 1 nM T3 present, 24 h
In the case of `O=C1c2ccccc2C(=O)C1C(=O)C(c1ccccc1)c1ccccc1` [Diphacinone], the CC50 at 24 h is reported as > 50 µM.

Same assay, conditions: rat, gh3-tre-luc cells, AC50 (uM) modified / 1000, Tox21_110001=Tox21_112876; viability, 1 nM T3 present, 24 h
In the case of `CC(C)=CCN1CC[C@]2(C)c3cc(O)ccc3C[C@H]1[C@H]2C` [(+)-Pentazocine succinate], the CC50 at 24 h is reported as > 90 µM.

Same assay, conditions: rat, gh3-tre-luc cells, AC50 (uM) modified / 1000, Tox21_110001=Tox21_200909; viability, 1 nM T3 present, 24 h
For `Oc1cccc(Cl)c1Cl` [2,3-Dichlorophenol], the CC50 at 24 h was > 90 µM.

Same assay, conditions: rat, gh3-tre-luc cells, AC50 (uM) modified / 1000, Tox21_110001=Tox21_200923; viability, 1 nM T3 present, 24 h
In the case of `O=C(O)C(Cl)(Cl)Br` [Bromodichloroacetic acid], the CC50 at 24 h is reported as > 90 µM.

Same assay, conditions: rat, gh3-tre-luc cells, AC50 (uM) modified / 1000, Tox21_110001=Tox21_201627; viability, 1 nM T3 present, 24 h
For `Nc1ccc(Cl)cc1` [4-Chloroaniline hydrochloride], the CC50 at 24 h was > 90 µM.

Same assay, conditions: rat, gh3-tre-luc cells, AC50 (uM) modified / 1000, Tox21_110001=Tox21_202829; viability, 1 nM T3 present, 24 h
In the case of `CC[C@H](N)c1ccccc1` [(S)-(-)-1-Amino-1-phenylpropane], the CC50 at 24 h is reported as > 90 µM.

Same assay, conditions: rat, gh3-tre-luc cells, AC50 (uM) modified / 1000, Tox21_110001=Tox21_400029; viability, 1 nM T3 present, 24 h
`ClC1=C(Cl)[C@]2(Cl)[C@@H]3[C@@H]4C[C@@H]([C@H]5O[C@@H]45)[C@@H]3[C@@]1(Cl)C2(Cl)Cl` [Dieldrin] showed a CC50 at 24 h of 75.8 µM.
